Experimental data as given in US20120149700A1, “2-CYANOPHENYL FUSED HETEROCYCLIC COMPOUNDS, AND COMPOSTIONS AND USES THEREOF” (priority 2007, published 2012).

How the values were obtained:
P2X2/3 = molecular target: T1, P2X2/3 (Homo sapiens, UniProt P56373+Q9UBL9); experiment: Calcium uptake assay (P2X antagonist assay, inhibition of agonist-induced calcium influx), P2X2/3; format: cell-based; details: inhibition of agonist-induced calcium influx in cells expressing the receptor
T1 construct: expressed in transfected cells; host or cells: cell line stably expressing P2X2, stably transfected with P2X3 (e.g. HEK293 or 1321N1)
T1 sequence (Q9UBL9 1-471): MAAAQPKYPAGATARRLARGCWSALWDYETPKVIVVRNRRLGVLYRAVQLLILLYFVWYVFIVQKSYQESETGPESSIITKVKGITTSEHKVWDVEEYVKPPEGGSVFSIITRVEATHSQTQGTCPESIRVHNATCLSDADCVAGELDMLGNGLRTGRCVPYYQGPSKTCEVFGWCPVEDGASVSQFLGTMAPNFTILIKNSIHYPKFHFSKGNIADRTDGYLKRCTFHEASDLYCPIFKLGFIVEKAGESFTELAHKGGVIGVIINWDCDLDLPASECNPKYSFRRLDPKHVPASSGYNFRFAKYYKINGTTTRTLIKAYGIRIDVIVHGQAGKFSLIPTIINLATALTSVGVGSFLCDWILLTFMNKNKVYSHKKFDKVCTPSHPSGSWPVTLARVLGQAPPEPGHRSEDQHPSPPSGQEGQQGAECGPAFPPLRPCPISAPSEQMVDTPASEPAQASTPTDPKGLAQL
T1 sequence (P56373 1-397): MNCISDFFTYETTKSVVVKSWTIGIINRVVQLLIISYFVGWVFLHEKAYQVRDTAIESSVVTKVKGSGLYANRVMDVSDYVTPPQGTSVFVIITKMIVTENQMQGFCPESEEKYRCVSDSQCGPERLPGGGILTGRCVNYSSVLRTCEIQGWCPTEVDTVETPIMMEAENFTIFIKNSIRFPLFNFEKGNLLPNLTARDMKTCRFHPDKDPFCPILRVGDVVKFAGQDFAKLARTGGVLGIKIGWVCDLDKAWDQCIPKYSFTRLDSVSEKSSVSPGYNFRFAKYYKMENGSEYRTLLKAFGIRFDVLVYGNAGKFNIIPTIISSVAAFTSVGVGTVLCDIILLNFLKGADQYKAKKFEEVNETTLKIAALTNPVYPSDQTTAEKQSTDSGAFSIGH
Description: (§1) The human P2X2/3 chimera clone is created as described by Neelands et al, and then cloned into an expression vector as above. Receptors are expressed in cells (e.g., HEK293 or 1321N1 (obtained from the ECACC)) via transient transfection using standard lipid mediated transfection, or by creation of stable transfectants for each receptor. For expression of the P2X2/3 heteromeric receptor, the P2X3 expression vector is stably transfected into a cell line already stably expressing P2X2. P2X2/3 heteromer function is isolated using pharmacological methods. Cell lines are maintained in DMEM+5% Glutamax, the appropriate level of selective antibiotic, and 10% heat inactivated FBS.
(§2) Functional activity of compounds at the P2X receptor is determined by measuring their ability to inhibit agonist-induced calcium influx. Compounds are tested for antagonist activity against the P2X2/3 chimera, the P2X3 homomer, or the P2X2/3 heteromer. At the start of each screening day, the agonist EC50 is determined. Compound % inhibition or IC50s are subsequently determined using a pre-determined agonist concentration (EC50-90 depending on cell line) as a stimulus. The agonists used are αβMeATP, ATP, or other ATP analogs. Compounds may be tested at concentrations ranging from 1 pM to 10 μM.
(§3) To test for antagonist activity, cells expressing the appropriate receptor are seeded onto 96 or 384 well plates 18-24 hours prior to assay. […] Plates are incubated at 37° C. and then equilibrated at room temperature. Antagonism of agonist-induced calcium influx is measured using a fluorescent imaging plate reader (e.g. FLIPR^TETRA, Molecular Devices, Sunnyvale, Calif.). The assay comprises two stages: a pre-treatment phase followed by a treatment phase. Compounds may be tested as follows: For the pre-treatment phase, 50 μL of 3× concentration of test compound in HBSS is added to cells containing 100 μL of dye loading media to achieve a final concentration of 1× test compound. For the treatment phase, at a set interval after pre-treatment (1-30 minutes), 50 μl, of 1× test compound plus 4× agonist solution is added, resulting in a final concentration of 1× compound and 1× agonist. […] Responses are measured as (peak fluorescence after agonist addition) minus (baseline fluorescence prior to treatment). Percent inhibition is calculated as follows: […]
(§4) IC50 values are determined by analyzing dose response data in a 4 parameter logistic fit using GraphPad Prizm.

P2X3 = molecular target: T2, P2X3 (Homo sapiens, UniProt P56373); experiment: Calcium uptake assay (P2X antagonist assay, inhibition of agonist-induced calcium influx), P2X3; format: cell-based; details: inhibition of agonist-induced calcium influx in cells expressing the receptor
T2 construct: expressed in transfected cells; host or cells: e.g. HEK293 or 1321N1
T2 sequence (P56373 1-397): T1 sequence (P56373 1-397)
Description: as §1, §2, §3, §4

Compound	IC50 (P2X2/3) [nM]	IC50 (P2X3) [nM]
Cc1ccc(N2CCc3ncnc(NCc4ccc(C5CC5)cn4)c3C2)c(C#N)c1 [Compound 30, 2-{4-[(5-Cyclopropyl-pyridin-2-ylmethyl)-amino]-7,8-dihydro-5H-pyrido[4,3-d]pyrimidin-6-yl}-5-methyl-benzonitrile]	377	236
Cc1ccc(N2CCc3ncnc(NCc4ncc(Cl)cc4Cl)c3C2)c(C#N)c1 [Compound 32, 2-{-4-[(3,5-Dichloro-pyridin-2-ylmethyl)-amino]-7,8-dihydro-5H-pyrido[4,3-d]pyrimidin-6-yl}-5-methyl-benzonitrile]	50	41
CCc1ccc(CNc2ncnc3c2CN(c2ccc(C)cc2C#N)CC3)cn1 [Compound 33, 2-{4-[(6-Ethyl-pyridin-3-ylmethyl)-amino]-7,8-dihydro-5H-pyrido[4,3-d]pyrimidin-6-yl}-5-methyl-benzonitrile]	127	38
COc1ccc([C@@H](CCO)Nc2ncnc3c2CN(c2ccc(Cl)cc2C#N)CC3)cn1 [Compound 34, 5-Chloro-2-{4-[(R)-3-hydroxy-1-(6-methoxy-pyridin-3-yl)-propylamino]-7,8-dihydro-5H-pyrido[4,3-d]pyrimidin-6-yl}-benzonitrile]	105	33
COc1ccc([C@@H](CO)Nc2ncnc3c2CN(c2ccc(Cl)cc2C#N)CC3)cn1 [Compound 35, 5-Chloro-2-{4-[(S)-2-hydroxy-1-(6-methoxy-pyridin-3-yl)-ethylamino]-7,8-dihydro-5H-pyrido[4,3-d]pyrimidin-6-yl}-benzonitrile]	200	23
Cc1ccc(N2CCc3ncnc(NCc4cccc(C#N)c4)c3C2)c(C#N)c1 [Compound 36, 2-[4-(3-Cyano-benzylamino)-7,8-dihydro-5H-pyrido[4,3-d]pyrimidin-6-yl]-5-methyl-benzonitrile]	1090	183
Cc1ccc(N2CCc3ncnc(NCc4ccc5ocnc5c4)c3C2)c(C#N)c1 [Compound 38, 2-{4-[(Benzooxazol-5-ylmethyl)-amino]-7,8-dihydro-5H-pyrido[4,3-d]pyrimidin-6-yl}-5-methyl-benzonitrile]	45	15
Cc1ccc(N2CCc3ncnc(NCc4ccc(C)c(-n5cncn5)c4)c3C2)c(C#N)c1 [Compound 40, 5-Methyl-2-{4-(4-methyl-3-[1,2,4]triazol-1-yl-benzylamino)-7,8-dihydro-5H-pyrido[4,3-d]pyrimidin-6-yl}-benzonitrile]	92	21
N#Cc1cc(Cl)ccc1N1CCc2ncnc(NCc3ccn4ccnc4c3)c2C1 [Compound 44, 5-Chloro-2-{4-[(imidazo[1,2-a]pyridin-7-ylmethyl)-amino]-7,8-dihydro-5H-pyrido[4,3-d]pyrimidin-6-yl}-benzonitrile]	753	122
Cc1ccc(N2CCc3ncnc(N[C@H](CO)c4ccc(C(F)(F)F)nc4)c3C2)c(C#N)c1 [Compound 46, 2-{4-[(S)-2-Hydroxy-1-(6-trifluoromethyl-pyridin-3-yl)-ethylamino]-7,8-dihydro-5H-pyrido[4,3-d]pyrimidin-6-yl}-5-methyl-benzonitrile]	71	21
N#Cc1cc(Cl)ccc1N1CCc2ncnc(N[C@H](CO)c3ccc(C(F)(F)F)nc3)c2C1 [Compound 47, 5-Chloro-2-{4-[(S)-2-hydroxy-1-(6-trifluoromethyl-pyridin-3-yl)-ethylamino]-7,8-dihydro-5H-pyrido[4,3-d]pyrimidin-6-yl}-benzonitrile]	671	54
Cc1ccc(N2CCc3ncnc(NCc4ccc(C)c(F)c4)c3C2)c(C#N)c1 [Compound 48, 2-[4-(3-Fluoro-4-methyl-benzylamino)-7,8-dihydro-5H-pyrido[4,3-d]pyrimidin-6-yl]-5-methyl-benzonitrile]	124	89

Continued, values first:

IC50 (P2X2/3) [nM]	IC50 (P2X3) [nM]	Compound
925	474	CSc1cc(CNc2ncnc3c2CN(c2ccc(C)cc2C#N)CC3)ccc1C [Compound 49, 5-Methyl-2-[4-(4-methyl-3-methylsulfanyl-benzylamino)-7,8-dihydro-5H-pyrido[4,3-d]pyrimidin-6-yl]-benzonitrile]
63	31	Cc1ccc(N2CCc3ncnc(NCc4ccc(Cl)c(-n5cnnc5)c4)c3C2)c(C#N)c1 [Compound 50, 2-[4-(4-Chloro-3-[1,2,4]triazol-4-yl-benzylamino)-7,8-dihydro-5H-pyrido[4,3-d]pyrimidin-6-yl]-5-methyl-benzonitrile]
1020	284	N#Cc1cc(Cl)ccc1N1CCc2ncnc(NCc3cccc(-n4cnnc4)c3)c2C1 [Compound 51, 5-Chloro-2-[4-(3-[1,2,4]triazol-4-yl-benzylamino)-7,8-dihydro-5H-pyrido[4,3-d]pyrimidin-6-yl]-benzonitrile]
286	41	N#Cc1cc(Cl)ccc1N1CCc2ncnc(NCc3ccc(Cl)c(-n4cnnc4)c3)c2C1 [Compound 52, 5-Chloro-2-[4-(4-chloro-3-[1,2,4]triazol-4-yl-benzylamino)-7,8-dihydro-5H-pyrido[4,3-d]pyrimidin-6-yl]-benzonitrile]
324	65	Cc1ccc(N2CCc3ncnc(NCc4cccc(-n5cnnc5)c4)c3C2)c(C#N)c1 [Compound 53, 5-Methyl-2-[4-(3-[1,2,4]triazol-4-yl-benzylamino)-7,8-dihydro-5H-pyrido[4,3-d]pyrimidin-6-yl]-benzonitrile]
1300	512	Cc1ccc(N2CCc3ncnc(NCc4ccc(C)c(I)c4)c3C2)c(C#N)c1 [Compound 55, 2-[4-(3-Iodo-4-methyl-benzylamino)-7,8-dihydro-5H-pyrido[4,3-d]pyrimidin-6-yl]-5-methyl-benzonitrile]
82	63	Cc1ccc(N2CCc3ncnc(NCc4ccc(C)c(C#N)c4)c3C2)c(C#N)c1 [Compound 56]
55	16	Cc1ccc(N2CCc3ncnc(NCc4ccc(C)c(S(C)(=O)=O)c4)c3C2)c(C#N)c1 [Compound 59, 2-{4-(3-Methanesulfonyl-4-methyl-benzylamino)-7,8-dihydro-5H-pyrido[4,3-d]pyrimidin-6-yl}-5-methyl-benzonitrile]
273	32	N#Cc1cc(Cl)ccc1N1CCc2ncnc(N[C@H](CCO)c3ccc(C(F)F)nc3)c2C1 [Compound 62, 5-Chloro-2-{4-[(R)-1-(6-difluoromethyl-pyridin-3-yl)-3-hydroxy-propylamino]-7,8-dihydro-5H-pyrido[4,3-d]pyrimidin-6-yl}-benzonitrile]
1120	96	Cc1ccc(N2CCc3ncnc(NCc4ccc(C)c(N5CCOCC5)c4)c3C2)c(C#N)c1 [Compound 63, 5-Methyl-2-[4-(4-methyl-3-morpholin-4-yl-benzylamino)-7,8-dihydro-5H-pyrido[4,3-d]pyrimidin-6-yl]-benzonitrile]
